pIC50: −log10 of the molar value. Strand notation (5' to 3'): a small letter for the sugar, then the base; units joined by * are phosphorothioate-linked, units joined directly phosphodiester-linked; [ ] holds rarer units or linkages, { } end groups; capitals alone tell only the bases. k = constrained ethyl (cEt); [5mC] = 5-methylcytosine; d = 2'-deoxy (DNA)
How the values were obtained:
Yap1 mRNA [1] = assay: Antisense inhibition of human Yap1 in A-431 cells by cEt gapmers, single dose (Example 1, RTS4814); assay type: cell-based
Procedure: Modified oligonucleotides were designed to target a Yap1 nucleic acid and were tested for their effect on Yap1 mRNA level in vitro. The modified oligonucleotides were tested in a series of experiments that had similar culture conditions. Cultured A-431 cells at a density of 5,000 cells per well were treated using free uptake with 2,000 nM of modified oligonucleotide. After a treatment period of approximately 48 hours, RNA was isolated from the cells and Yap1 mRNA levels were measured by quantitative real-time RTPCR. Human primer probe set RTS4814 (forward sequence […], designated herein as SEQ ID NO.: 11; reverse sequence […], designated herein as SEQ ID NO.: 12; probe sequence […], designated herein as SEQ ID NO.: 13) was used to measure mRNA levels. Yap1 mRNA levels were normalized to total RNA content, as measured by RIBOGREEN®. Results are presented in the tables below as percent control of the amount of Yap1 mRNA relative to untreated control cells (% UTC). The modified oligonucleotides with percent control values marked with an asterisk (*) target the amplicon region of the primer probe set. Additional assays may be used to measure the potency and efficacy of the modified oligonucleotides targeting the amplicon region.
The newly designed modified oligonucleotides in the Tables below were designed as 3-10-3 cEt gapmers. The gapmers are 16 nucleosides in length, wherein the central gap segment comprises of ten 2′-deoxynucleosides and is flanked by wing segments on the 5′ direction and the 3′ direction comprising three nucleosides each. Each nucleoside in the 5′ wing segment and each nucleoside in the 3′ wing segment has a cEt sugar modification. The internucleoside linkages throughout each gapmer are phosphorothioate (P═S) linkages. All cytosine residues throughout each gapmer are 5-methylcytosines.
“Start site” indicates the 5′-most nucleoside to which the gapmer is targeted in the human gene sequence. “Stop site” indicates the 3′-most nucleoside to which the gapmer is targeted human gene sequence. […] Activity of the modified oligonucleotide may be defined in a different experiment.

Yap1 mRNA [2] = assay: Dose-dependent inhibition of human Yap1 in A-431 cells (Example 6, 5,000 cells per well, RTS4814); assay type: cell-based; conditions: for Yap1 mRNA, % UTC: 48 hours; for % UTC 148 nM / % UTC 444 nM / % UTC 1333 nM / % UTC 4000 nM: approximately 48 hours
Procedure: Modified oligonucleotides described in the studies above were tested at various doses in A-431 cells. Cultured A-431 cells at a density of 5,000 cells per well were treated using free uptake with modified oligonucleotides diluted to concentrations described in the tables below. After approximately 48 hours, Yap1 mRNA levels were measured as previously described using the Human Yap1 primer-probe set RTS4814. Yap1 mRNA levels were normalized to total RNA content, as measured by RIBOGREEN®. Results are presented in the tables below as percent control of the amount of Yap1 mRNA relative to untreated control cells (% UTC). IC50s were calculated using a linear regression on a log/linear plot of the data in excel.

[3] = A-431 cells, 5,000 cells per well, free uptake, 2,000 nM modified oligonucleotide, approx. 48 hours, RTS4814, normalized to RIBOGREEN, Table 3
[4] = Table 1, A-431 cells, free uptake, 2,000 nM, approximately 48 hours, RTS4814, Yap1 mRNA relative to untreated control cells
[5] = Table 55, 148 nM, free uptake, A-431 cells 5,000 cells per well, RTS4814
[6] = Table 55, 444 nM, free uptake, A-431 cells 5,000 cells per well, RTS4814
[7] = Table 55, 1333 nM, free uptake, A-431 cells 5,000 cells per well, RTS4814
[8] = Table 55, 4000 nM, free uptake, A-431 cells 5,000 cells per well, RTS4814
[9] = Table 55, A-431 cells 5,000 cells per well, free uptake, RTS4814
[10] = Table 54, A-431 cells, Yap1 mRNA, linear regression on a log/linear plot
[11] = Table 54, A-431 cells, free uptake, 148 nM, RTS4814
[12] = Table 54, A-431 cells, free uptake, 444 nM, RTS4814
[13] = Table 54, A-431 cells, free uptake, 1333 nM, RTS4814
[14] = Table 54, A-431 cells, free uptake, 4000 nM, RTS4814
[15] = Table 53, A-431 cells, Yap1 mRNA, linear regression on a log/linear plot
[16] = Table 53, A-431 cells, free uptake, 148 nM, RTS4814
[17] = Table 53, A-431 cells, free uptake, 444 nM, RTS4814
[18] = Table 53, A-431 cells, free uptake, 1333 nM, RTS4814
[19] = Table 53, A-431 cells, free uptake, 4000 nM, RTS4814

Substance	Yap1 mRNA, % UTC (Yap1 mRNA [2]; [5]) [% UTC]	Yap1 mRNA, % UTC (Yap1 mRNA [2]; [6]) [% UTC]	Yap1 mRNA, % UTC (Yap1 mRNA [2]; [7]) [% UTC]	Yap1 mRNA, % UTC (Yap1 mRNA [2]; [8]) [% UTC]	pIC50 (Yap1 mRNA [2]; [9])	also measured
715438 (antisense kT*kT*k[5mC]*dA*dT*dG*dG*d[5mC]*dA*dA*dA*dA*d[5mC]*kG*kA*kG) [Compound 715438]	–	–	–	–	–	YAP1 (% UTC) (Yap1 mRNA [1]; [3]): 82 % UTC
715540 (kT*kG*kA*dA*dG*dA*dA*d[5mC]*dT*dA*dT*dT*dT*k[5mC]*k[5mC]*kT; antisense) [Compound 715540]	–	–	–	–	–	YAP1 (% UTC) (Yap1 mRNA [1]; [3]): 82 % UTC
715400 (k[5mC]*kT*k[5mC]*d[5mC]*dG*dA*dG*dT*d[5mC]*d[5mC]*d[5mC]*d[5mC]*dG*k[5mC]*kG*kG; antisense) [Compound 715400]	–	–	–	–	–	YAP1 (% UTC) (Yap1 mRNA [1]; [4]): 107 % UTC
715524 (kA*k[5mC]*kT*dT*dT*dA*dA*dG*dA*dA*dG*dT*dA*kT*k[5mC]*kT; antisense) [Compound 715524]	–	–	–	–	–	YAP1 (% UTC) (Yap1 mRNA [1]; Table 2, A-431 cells, free uptake, 2,000 nM, approximately 48 hours, RTS4814, Yap1 mRNA relative to untreated control cells): 93 % UTC
715529 (kT*kG*kA*dA*dA*d[5mC]*d[5mC]*dT*dG*dA*dT*d[5mC]*d[5mC]*kT*kT*kT; antisense) [Compound 715529]	–	–	–	–	–	YAP1 (% UTC) (Yap1 mRNA [1]; [4]): 148 % UTC
716548 (antisense kG*kA*kG*dT*dT*dT*d[5mC]*dA*dA*d[5mC]*dA*d[5mC]*dT*kG*kA*kT) [compound 716548]	99	89	79	67	< 5.40	–
716370 (k[5mC]*kA*kG*dT*dG*d[5mC]*d[5mC]*dT*dG*d[5mC]*dA*dT*d[5mC]*kA*kG*kT; antisense) [compound 716370]	–	–	–	–	–	pIC50 (Yap1 mRNA [2]; [10]): < 5.40; % UTC 148 nM (Yap1 mRNA [2]; [11]): 81 % UTC; % UTC 444 nM (Yap1 mRNA [2]; [12]): 79 % UTC; % UTC 1333 nM (Yap1 mRNA [2]; [13]): 69 % UTC; % UTC 4000 nM (Yap1 mRNA [2]; [14]): 49 % UTC
715434 (kT*k[5mC]*kT*dT*dG*dT*dT*d[5mC]*dT*dT*dA*dT*dG*kG*kT*kT; antisense) [compound 715434]	–	–	–	–	–	pIC50 (Yap1 mRNA [2]; [15]): 5.55; % UTC 148 nM (Yap1 mRNA [2]; [16]): 84 % UTC; % UTC 444 nM (Yap1 mRNA [2]; [17]): 69 % UTC; % UTC 1333 nM (Yap1 mRNA [2]; [18]): 64 % UTC; % UTC 4000 nM (Yap1 mRNA [2]; [19]): 43 % UTC
716503 (antisense kT*kT*kA*dT*dT*dA*dT*dG*dA*dG*dT*dG*dA*kT*k[5mC]*kA) [compound 716503]	91	80	67	64	< 5.40	–
716505 (antisense kG*kA*kT*dT*dT*dA*dA*dT*d[5mC]*dT*dT*dT*d[5mC]*kT*kG*k[5mC]) [compound 716505]	–	–	–	–	–	pIC50 (Yap1 mRNA [2]; [10]): < 5.40; % UTC 148 nM (Yap1 mRNA [2]; [11]): 83 % UTC; % UTC 444 nM (Yap1 mRNA [2]; [12]): 103 % UTC; % UTC 1333 nM (Yap1 mRNA [2]; [13]): 82 % UTC; % UTC 4000 nM (Yap1 mRNA [2]; [14]): 66 % UTC
716543 (antisense kT*kA*kT*dT*dT*dG*dT*dA*dG*d[5mC]*dA*dA*dA*kG*kT*k[5mC]) [compound 716543]	62	99	79	64	< 5.40	–
715479 (kA*kA*kA*d[5mC]*d[5mC]*dA*dT*dT*dA*dT*dT*dA*d[5mC]*kT*k[5mC]*k[5mC]; antisense) [compound 715479]	–	–	–	–	–	pIC50 (Yap1 mRNA [2]; [15]): < 5.40; % UTC 148 nM (Yap1 mRNA [2]; [16]): 98 % UTC; % UTC 444 nM (Yap1 mRNA [2]; [17]): 80 % UTC; % UTC 1333 nM (Yap1 mRNA [2]; [18]): 77 % UTC; % UTC 4000 nM (Yap1 mRNA [2]; [19]): 64 % UTC
716438 (antisense kA*kT*kT*dT*dT*dT*dG*dG*d[5mC]*dT*dT*dG*dT*k[5mC]*kA*kG) [compound 716438]	93	75	62	49	5.47	–
715523 (kA*kT*k[5mC]*dA*dG*dT*dA*d[5mC]*dT*dG*dG*d[5mC]*d[5mC]*kT*kA*kT; antisense) [compound 715523]	–	–	–	–	–	pIC50 (Yap1 mRNA [2]; [15]): 5.49; % UTC 148 nM (Yap1 mRNA [2]; [16]): 100 % UTC; % UTC 444 nM (Yap1 mRNA [2]; [17]): 62 % UTC; % UTC 1333 nM (Yap1 mRNA [2]; [18]): 75 % UTC; % UTC 4000 nM (Yap1 mRNA [2]; [19]): 44 % UTC
716381 (kT*kG*kT*d[5mC]*dT*dG*dA*dT*d[5mC]*dG*dA*dT*dG*kT*kG*kA; antisense) [compound 716381]	106	90	80	44	5.38	–
716407 (antisense k[5mC]*kT*kT*dA*dG*dT*d[5mC]*d[5mC]*dA*d[5mC]*dT*dG*dT*k[5mC]*kT*kG) [compound 716407]	84	75	72	39	5.52	–

Reference: patent US11214803B2, “Modulators of YAP1 expression” (Ionis Pharmaceuticals, Inc., priority 2019, dated 2022)
